Measurements published in publication PMC9481570, “A small molecule antagonist of SMN disrupts the interaction between SMN and RNAP II” (Nature Communications, 2022).
Several values for one entry are separate records, joined by “and”; a condition that tells them apart may be missing. Equal values may be shown once.

Key:
Assay in all cases: Affinity-purification and mass spectrometry (AP-MS) chemical proteomics, all proteins;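 on Difference: 200 µM free competitor with 20 µM biotin probe overnight in lysate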
Assay type in all cases: binding
[1] = biological target: T1, proteins displaced from immobilized biotin-Cmpd 1 pulldowns (U2OS cell lysate) (Homo sapiens, UniProt P30048); details: GN=PRDX3 (P30048)
T1 construct: endogenous in cells; host or cells: U2OS

[2] = biological target: T2, proteins displaced from immobilized biotin-Cmpd 1 pulldowns (U2OS cell lysate) (Homo sapiens, UniProt Q9UKD2); details: GN=MRTO4 (Q9UKD2)
T2 construct: endogenous in cells; host or cells: U2OS

[3] = biological target: T3, proteins displaced from immobilized biotin-Cmpd 1 pulldowns (U2OS cell lysate) (Homo sapiens, UniProt Q9NZT1); details: GN=CALML5 (Q9NZT1)
T3 construct: endogenous in cells; host or cells: U2OS

[4] = biological target: T4, proteins displaced from immobilized biotin-Cmpd 1 pulldowns (U2OS cell lysate) (Homo sapiens, UniProt P22735); details: GN=TGM1 (P22735)
T4 construct: endogenous in cells; host or cells: U2OS

[5] = biological target: T5, proteins displaced from immobilized biotin-Cmpd 1 pulldowns (U2OS cell lysate) (Homo sapiens, UniProt O43660); details: GN=PLRG1 (O43660)
T5 construct: endogenous in cells; host or cells: U2OS

[6] = biological target: T6, proteins displaced from immobilized biotin-Cmpd 1 pulldowns (U2OS cell lysate) (Homo sapiens, UniProt Q9BUF5); details: GN=TUBB6 (Q9BUF5)
T6 construct: endogenous in cells; host or cells: U2OS

[7] = biological target: T7, proteins displaced from immobilized biotin-Cmpd 1 pulldowns (U2OS cell lysate) (Homo sapiens, UniProt Q9Y5B9); details: GN=SUPT16H (Q9Y5B9)
T7 construct: endogenous in cells; host or cells: U2OS

[8] = biological target: T8, proteins displaced from immobilized biotin-Cmpd 1 pulldowns (U2OS cell lysate) (Homo sapiens, UniProt O75369); details: GN=FLNB (O75369)
T8 construct: endogenous in cells; host or cells: U2OS

[9] = biological target: T9, proteins displaced from immobilized biotin-Cmpd 1 pulldowns (U2OS cell lysate) (Homo sapiens, UniProt O95478); details: GN=NSA2 (O95478)
T9 construct: endogenous in cells; host or cells: U2OS

[10] = biological target: T10, proteins displaced from immobilized biotin-Cmpd 1 pulldowns (U2OS cell lysate) (Homo sapiens, UniProt Q13765); details: GN=NACA (Q13765)
T10 construct: endogenous in cells; host or cells: U2OS

T7 sequence (Q9Y5B9 whole entry): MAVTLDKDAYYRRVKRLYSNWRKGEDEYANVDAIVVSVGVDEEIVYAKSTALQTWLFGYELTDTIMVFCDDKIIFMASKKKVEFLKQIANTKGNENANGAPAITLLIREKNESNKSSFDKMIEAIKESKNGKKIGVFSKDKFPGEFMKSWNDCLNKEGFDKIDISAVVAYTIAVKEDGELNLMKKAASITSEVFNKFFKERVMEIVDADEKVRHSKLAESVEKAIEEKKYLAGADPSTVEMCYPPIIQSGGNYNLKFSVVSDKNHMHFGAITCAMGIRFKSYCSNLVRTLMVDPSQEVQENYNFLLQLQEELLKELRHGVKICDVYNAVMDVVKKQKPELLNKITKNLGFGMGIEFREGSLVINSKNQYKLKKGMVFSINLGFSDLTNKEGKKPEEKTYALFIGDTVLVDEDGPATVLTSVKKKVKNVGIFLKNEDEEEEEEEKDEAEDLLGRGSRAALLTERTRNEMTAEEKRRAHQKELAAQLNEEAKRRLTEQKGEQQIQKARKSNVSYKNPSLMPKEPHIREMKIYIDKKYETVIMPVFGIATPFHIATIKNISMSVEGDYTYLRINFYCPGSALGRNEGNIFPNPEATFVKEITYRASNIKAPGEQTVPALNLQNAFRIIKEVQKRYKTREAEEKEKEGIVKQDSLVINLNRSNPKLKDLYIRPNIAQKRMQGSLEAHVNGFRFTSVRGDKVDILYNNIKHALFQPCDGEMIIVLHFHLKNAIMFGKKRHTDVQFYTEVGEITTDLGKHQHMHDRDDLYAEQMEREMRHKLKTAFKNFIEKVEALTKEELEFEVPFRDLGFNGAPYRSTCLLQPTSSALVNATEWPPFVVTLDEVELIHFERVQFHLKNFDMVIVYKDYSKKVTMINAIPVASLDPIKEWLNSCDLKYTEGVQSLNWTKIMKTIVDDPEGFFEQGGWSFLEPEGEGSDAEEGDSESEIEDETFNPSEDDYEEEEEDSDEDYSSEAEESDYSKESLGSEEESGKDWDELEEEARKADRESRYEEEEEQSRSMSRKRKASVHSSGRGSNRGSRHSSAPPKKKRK
T4 sequence (P22735 whole entry): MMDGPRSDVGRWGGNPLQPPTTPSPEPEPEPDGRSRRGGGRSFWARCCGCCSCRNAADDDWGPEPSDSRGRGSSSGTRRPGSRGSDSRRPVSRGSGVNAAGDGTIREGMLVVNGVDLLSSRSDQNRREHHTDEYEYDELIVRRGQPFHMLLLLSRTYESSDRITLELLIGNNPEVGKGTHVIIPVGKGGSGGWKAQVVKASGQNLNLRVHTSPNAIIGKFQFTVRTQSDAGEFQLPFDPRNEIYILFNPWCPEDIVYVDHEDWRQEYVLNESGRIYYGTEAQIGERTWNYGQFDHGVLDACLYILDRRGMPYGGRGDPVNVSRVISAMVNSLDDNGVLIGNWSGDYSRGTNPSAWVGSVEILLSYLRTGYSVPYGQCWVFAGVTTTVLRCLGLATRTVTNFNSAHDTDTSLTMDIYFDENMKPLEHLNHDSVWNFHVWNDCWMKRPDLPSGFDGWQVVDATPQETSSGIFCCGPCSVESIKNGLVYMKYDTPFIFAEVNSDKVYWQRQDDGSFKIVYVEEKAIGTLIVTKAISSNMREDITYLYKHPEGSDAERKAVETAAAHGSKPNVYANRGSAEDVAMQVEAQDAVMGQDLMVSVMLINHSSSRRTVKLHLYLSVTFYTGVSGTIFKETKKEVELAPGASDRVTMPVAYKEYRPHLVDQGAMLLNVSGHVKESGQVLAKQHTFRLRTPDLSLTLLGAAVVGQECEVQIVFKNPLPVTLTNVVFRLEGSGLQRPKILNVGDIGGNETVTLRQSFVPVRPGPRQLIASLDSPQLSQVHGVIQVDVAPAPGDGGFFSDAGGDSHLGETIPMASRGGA
T3 sequence (Q9NZT1 whole entry): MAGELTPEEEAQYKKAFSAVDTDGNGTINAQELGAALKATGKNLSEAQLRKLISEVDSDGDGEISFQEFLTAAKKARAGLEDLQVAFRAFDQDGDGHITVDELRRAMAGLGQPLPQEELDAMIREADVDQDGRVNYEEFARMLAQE
T8 sequence (O75369 whole entry): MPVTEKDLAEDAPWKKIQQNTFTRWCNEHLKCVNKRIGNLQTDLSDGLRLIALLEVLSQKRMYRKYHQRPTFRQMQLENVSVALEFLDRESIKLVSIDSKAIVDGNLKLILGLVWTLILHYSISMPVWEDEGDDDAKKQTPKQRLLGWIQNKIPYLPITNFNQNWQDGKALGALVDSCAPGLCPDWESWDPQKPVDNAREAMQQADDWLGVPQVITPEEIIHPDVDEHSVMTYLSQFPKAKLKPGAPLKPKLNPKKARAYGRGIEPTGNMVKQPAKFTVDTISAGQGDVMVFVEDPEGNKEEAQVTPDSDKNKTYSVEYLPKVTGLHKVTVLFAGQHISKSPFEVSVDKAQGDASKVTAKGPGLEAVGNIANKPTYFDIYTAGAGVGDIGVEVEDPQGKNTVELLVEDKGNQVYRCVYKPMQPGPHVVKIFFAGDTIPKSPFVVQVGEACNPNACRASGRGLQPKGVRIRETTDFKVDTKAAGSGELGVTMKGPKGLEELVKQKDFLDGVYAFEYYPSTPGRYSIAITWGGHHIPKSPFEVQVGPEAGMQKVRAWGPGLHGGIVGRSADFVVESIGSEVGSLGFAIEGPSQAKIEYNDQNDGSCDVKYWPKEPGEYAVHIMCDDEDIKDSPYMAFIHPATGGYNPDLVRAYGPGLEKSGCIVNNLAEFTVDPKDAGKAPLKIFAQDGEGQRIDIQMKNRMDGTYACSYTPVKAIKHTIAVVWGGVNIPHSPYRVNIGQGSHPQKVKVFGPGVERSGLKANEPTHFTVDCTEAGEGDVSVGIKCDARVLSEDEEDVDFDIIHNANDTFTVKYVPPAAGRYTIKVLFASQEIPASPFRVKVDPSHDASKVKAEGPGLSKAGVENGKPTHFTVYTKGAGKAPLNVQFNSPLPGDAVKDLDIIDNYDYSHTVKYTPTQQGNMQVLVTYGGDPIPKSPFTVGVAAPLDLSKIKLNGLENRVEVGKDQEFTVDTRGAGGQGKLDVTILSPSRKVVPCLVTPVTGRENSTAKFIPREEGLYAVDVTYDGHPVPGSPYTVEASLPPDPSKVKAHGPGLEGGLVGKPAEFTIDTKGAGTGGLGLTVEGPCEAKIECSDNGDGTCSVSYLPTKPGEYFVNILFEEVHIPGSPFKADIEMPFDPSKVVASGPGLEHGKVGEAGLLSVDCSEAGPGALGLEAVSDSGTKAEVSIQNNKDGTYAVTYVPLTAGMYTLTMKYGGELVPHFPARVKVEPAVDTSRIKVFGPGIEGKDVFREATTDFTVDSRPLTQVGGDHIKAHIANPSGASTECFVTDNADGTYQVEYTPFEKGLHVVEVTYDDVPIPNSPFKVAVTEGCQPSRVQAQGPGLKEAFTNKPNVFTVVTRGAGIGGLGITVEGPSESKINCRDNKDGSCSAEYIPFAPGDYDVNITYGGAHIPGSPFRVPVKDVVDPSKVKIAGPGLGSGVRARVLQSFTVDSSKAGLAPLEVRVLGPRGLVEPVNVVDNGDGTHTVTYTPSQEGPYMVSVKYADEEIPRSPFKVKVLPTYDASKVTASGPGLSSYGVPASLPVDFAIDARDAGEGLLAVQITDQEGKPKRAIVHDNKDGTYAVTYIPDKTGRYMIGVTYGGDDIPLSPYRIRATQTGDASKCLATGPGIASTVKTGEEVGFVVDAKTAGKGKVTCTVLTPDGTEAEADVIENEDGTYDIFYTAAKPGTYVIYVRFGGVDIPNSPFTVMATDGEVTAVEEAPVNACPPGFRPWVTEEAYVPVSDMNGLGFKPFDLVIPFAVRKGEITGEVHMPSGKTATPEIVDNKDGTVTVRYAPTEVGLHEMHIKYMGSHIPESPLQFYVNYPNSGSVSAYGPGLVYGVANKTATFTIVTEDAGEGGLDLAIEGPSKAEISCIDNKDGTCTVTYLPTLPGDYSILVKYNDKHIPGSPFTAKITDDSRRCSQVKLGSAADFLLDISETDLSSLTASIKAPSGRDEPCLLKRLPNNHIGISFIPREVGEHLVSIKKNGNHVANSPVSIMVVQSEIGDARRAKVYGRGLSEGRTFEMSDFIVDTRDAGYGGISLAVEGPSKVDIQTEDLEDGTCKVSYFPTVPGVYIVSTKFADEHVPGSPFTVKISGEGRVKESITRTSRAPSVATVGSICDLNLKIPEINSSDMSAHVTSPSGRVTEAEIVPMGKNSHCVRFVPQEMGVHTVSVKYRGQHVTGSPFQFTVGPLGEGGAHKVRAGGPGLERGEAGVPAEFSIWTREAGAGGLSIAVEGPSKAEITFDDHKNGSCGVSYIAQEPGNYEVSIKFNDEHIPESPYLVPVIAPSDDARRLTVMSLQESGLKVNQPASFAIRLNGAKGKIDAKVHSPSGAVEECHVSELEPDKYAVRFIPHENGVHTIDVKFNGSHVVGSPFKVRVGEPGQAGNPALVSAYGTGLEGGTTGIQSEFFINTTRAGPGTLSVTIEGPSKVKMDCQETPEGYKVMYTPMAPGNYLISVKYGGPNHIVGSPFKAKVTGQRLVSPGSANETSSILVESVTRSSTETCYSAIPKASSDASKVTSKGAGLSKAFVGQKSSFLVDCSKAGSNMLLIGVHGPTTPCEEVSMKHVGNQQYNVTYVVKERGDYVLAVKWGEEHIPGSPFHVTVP
T6 sequence (Q9BUF5 whole entry): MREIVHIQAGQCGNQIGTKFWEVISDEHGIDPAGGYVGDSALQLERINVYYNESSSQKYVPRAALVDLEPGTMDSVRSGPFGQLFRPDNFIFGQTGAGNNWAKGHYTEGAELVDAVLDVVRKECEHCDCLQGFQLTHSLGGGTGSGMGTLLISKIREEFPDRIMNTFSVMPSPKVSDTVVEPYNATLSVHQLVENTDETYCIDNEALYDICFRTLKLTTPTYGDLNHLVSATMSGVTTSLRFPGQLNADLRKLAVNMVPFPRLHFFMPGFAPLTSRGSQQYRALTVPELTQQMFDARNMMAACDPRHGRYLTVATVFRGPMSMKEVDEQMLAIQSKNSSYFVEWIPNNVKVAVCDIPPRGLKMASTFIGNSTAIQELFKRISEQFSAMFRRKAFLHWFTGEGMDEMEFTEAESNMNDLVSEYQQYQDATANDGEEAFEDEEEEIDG

## Cn1c2c(c(=N)c3c1CCC3)CCC2 [Compound 1, 4-methyl-2,3,4,5,6,7-hexahydrodicyclopenta[b,e]pyridin-8(1H)-imine]
[1]; Cmpd minus DMSO, -LOG(P-value) 1.19354
  Difference: -0.7441
[1]; replicates 1-3
  iBAQ Cmpd: 16.0313 and 15.2476 and 15.6479
[2]; Cmpd minus DMSO, -LOG(P-value) 1.00789
  Difference: 2.584
[2]; replicates 1-3
  iBAQ Cmpd: 18.8307 and 17.054 and 17.709
[3]; Cmpd minus DMSO, -LOG(P-value) 2.02756
  Difference: -2.389
[3]; replicates 1-3
  iBAQ Cmpd: 18.8431 and 20.0939 and 20.182
[4]; Cmpd minus DMSO, -LOG(P-value) 1.15166
  Difference: -2.41
[4]; replicates 1-3
  iBAQ Cmpd: 15.9988 and 17.3288 and 14.7232
[5]; Cmpd minus DMSO, -LOG(P-value) 0.874244
  Difference: 2.0669
[5]; replicates 1-3
  iBAQ Cmpd: 19.5697 and 18.4715 and 18.0629
[6]; Cmpd minus DMSO, -LOG(P-value) 2.60513
  Difference: 3.82
[6]; replicates 1-3
  iBAQ Cmpd: 19.1705 and 17.8309 and 17.4529
[7]; Cmpd minus DMSO, -LOG(P-value) 1.35125
  Difference: 1.168
[7]; replicates 1-3
  iBAQ Cmpd: 20.1986 and 19.3251 and 19.6735
[8]; Cmpd minus DMSO, -LOG(P-value) 0.706969
  Difference: 1.057
[8]; replicates 1-3
  iBAQ Cmpd: 17.1694 and 17.27 and 16.0757
[9]; Cmpd minus DMSO, -LOG(P-value) 0.709566
  Difference: 1.456
[9]; replicates 1-3
  iBAQ Cmpd: 18.8418 and 18.1506 and 17.9444
[10]; Cmpd minus DMSO, -LOG(P-value) 0.904761
  Difference: 3.386
[10]; replicates 1-3
  iBAQ Cmpd: 21.59 and 20.9827 and 19.5819
